In the supplement of paper PMC11061612:

Key:
[1] = compound: CC1=CN2[C@@H](C1)C=NC3=CC(=C(C=C3C2=O)OC)OCCCCCOC4=C(C=C5C(=C4)N=C[C@@H]6CC(=CN6C5=O)C)OC [SG3199]; conditions: max 0.001 µM
In short: (§1)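 Plates with 1536 wells received cancer cell lines in 7.5 μl of DMEM/F12 or RPMI containing 10% FBS. After 24 hours at 37°C and 5% CO2, cells were dosed for 72 hours with final DMSO typically 0.2%, and viability was read by CellTiter-Glo 2.0 luminescence scaled between blank-well and DMSO-well means. The single-agent IC50 was taken from a logistic fit of the dose responses made with a non-linear mixed effects model, that logistic curve having two parameters.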

[2] = compound: NC1(c2ccc(-c3nc4ccn5c(=O)[nH]nc5c4cc3-c3ccccc3)cc2)CCC1 [MK-2206]; conditions: max 10 µM
In short: as §1

[3] = compound: Cc1c2c(nn1C)CSCc1cc(n(C)n1)CSc1cc(c3ccccc3c1)OCCCc1c(C(=O)O)n(C)c3c-2c(Cl)ccc13 [AZD5991]; conditions: max 1 µM
In short: as §1

[4] = compound: Cc1cc2ncnn2cc1Nc1ncc2c(n1)n(C1CCOCC1)c(=O)n2C [AZD7648]; conditions: max 10 µM
In short: as §1

[5] = compound: CC1=C(C(=CC=C1)Cl)NC(=O)C2=CN=C(S2)NC3=CC(=NC(=N3)C)N4CCN(CC4)CCO [Dasatinib]; conditions: max 2 µM
In short: as §1

[6] = compound: O=c1[nH]cc(F)c(=O)[nH]1 [5-Fluorouracil]; conditions: max 20 µM
In short: as §1

[7] = compound: CC(C)n1c(=O)n(C)c2cnc3cc(F)c(-c4ccc(OCCCN5CCCCC5)nc4)cc3c21 [AZD1390]; conditions: max 0.3 µM
In short: as §1

[8] = compound: COc1cc([C@@H]2c3cc4c(cc3[C@@H](O[C@@H]3O[C@@H]5CO[C@@H](C)O[C@H]5[C@H](O)[C@H]3O)[C@H]3COC(=O)[C@H]23)OCO4)cc(OC)c1O [Etoposide]; conditions: max 10 µM
In short: as §1

[9] = compound: COc1nnc2ccc(N3CCC(c4ccc(OCCN5CCN(C)C(=O)[C@H]5C)cc4)CC3)nn12 [AZD5153]; conditions: max 1 µM
In short: as §1

[10] = compound: CC1(C)CCC(CN2CCN(c3ccc(C(=O)NS(=O)(=O)c4ccc(NCC5CCOCC5)c([N+](=O)[O-])c4)c(Oc4cnc5[nH]ccc5c4)c3)CC2)=C(c2ccc(Cl)cc2)C1 [Venetoclax]; conditions: max 1 µM
In short: as §1

[11] = compound: CC(=O)O[C@H]1C(=O)[C@@]2(C)[C@H]([C@H](OC(=O)c3ccccc3)[C@]3(O)C[C@H](OC(=O)[C@H](O)[C@@H](NC(=O)c4ccccc4)c4ccccc4)C(C)=C1C3(C)C)[C@]1(OC(C)=O)CO[C@@H]1C[C@@H]2O [Paclitaxel]; conditions: max 3 µM
In short: as §1

[12] = compound: COc1cccc2c1C(=O)c1c(O)c3c(c(O)c1C2=O)C[C@@](O)(C(=O)CO)C[C@@H]3O[C@H]1C[C@H](N)[C@H](O)[C@H](C)O1 [Doxorubicin]; conditions: max 1 µM
In short: as §1

[13] = compound: CCN(CCO)CCCOc1ccc2c(Nc3cc(CC(=O)Nc4cccc(F)c4)[nH]n3)ncnc2c1 [AZD2811]; conditions: max 1 µM
In short: as §1

[14] = compound: C[C@@H](Nc1cc(F)cc(F)c1)c1cc(C(=O)N(C)C)cc2c(=O)cc(N3CCOCC3)oc12 [AZD8186]; conditions: max 10 µM
In short: as §1

[15] = compound: COc1cccc(OCCCN)c1-c1cc(Nc2cnc(C#N)cn2)n[nH]1 [Prexasertib]; conditions: max 1 µM
In short: as §1

[16] = compound: C[C@@H]1COCCN1C2=NC(=NC(=C2)C3(CC3)[S@](=N)(=O)C)C4=C5C=CNC5=NC=C4 [AZD6738]; conditions: max 10 µM
In short: as §1

[17] = compound: Cc1nc(-c2cn3c(n2)-c2ccc(-c4cnn(C(C)(C)C(N)=O)c4)cc2OCC3)n(C(C)C)n1 [Taselisib]; conditions: max 10 µM
In short: as §1

[18] = compound: C[C@@H](Oc1cc(-c2cnn(C3CCNCC3)c2)cnc1N)c1c(Cl)ccc(F)c1Cl [Crizotinib]; conditions: max 10 µM
In short: as §1

[19] = compound: CN(C)CCCOc1ccc(-c2ccc3ncc4c(c3c2)n(C2CCOCC2)c(=O)n4C)cn1 [AZD0156]; conditions: max 3 µM
In short: as §1

[20] = compound: C=CCn1c(=O)c2cnc(Nc3ccc(N4CCN(C)CC4)cc3)nc2n1-c1cccc(C(C)(C)O)n1 [AZD1775]; conditions: max 3 µM
In short: as §1

[21] = compound: Cn1cnc2c(F)c(Nc3ccc(Br)cc3Cl)c(C(=O)NOCCO)cc21 [Selumetinib]; conditions: max 10 µM
In short: as §1

[22] = compound: COc1cc2ncnc(Nc3ccc(F)c(Cl)c3)c2cc1OCCCN1CCOCC1 [Gefitinib]; conditions: max 10 µM
In short: as §1

[23] = compound: O=C(Nc1ccc2[nH]nc(-c3ccncc3)c2c1)[C@@H]1CCN(CC(=O)N2CCN(c3ccc(-c4ncccn4)cc3)CC2)C1; conditions: max 5 µM
In short: as §1

[24] = compound: C[C@@H](c1ccc2nccn2c1)n1nnc2ncc(-c3cnn(C)c3)nc21 [Savolitinib]; conditions: max 1 µM
In short: as §1

[25] = compound: N#Cc1cnc(Nc2cc(NC[C@H]3CNCCO3)c(C(F)(F)F)cn2)cn1 [SRA737]; conditions: max 10 µM
In short: as §1

[26] = compound: O=C(c1cc(Cc2n[nH]c(=O)c3ccccc23)ccc1F)N1CCN(C(=O)C2CC2)CC1 [Olaparib]; conditions: max 10 µM
In short: as §1

[27] = compound: CCc1c2c(nc3ccc(O)cc13)-c1cc3c(c(=O)n1C2)COC(=O)[C@]3(O)CC [SN-38]; conditions: max 0.3 µM
In short: as §1

[28] = compound: COc1cc(Nc2ncc3c(n2)-c2ccc(Cl)cc2C(c2c(F)cccc2OC)=NC3)ccc1C(=O)O [Alisertib]; conditions: max 10 µM
In short: as §1

[29] = compound: Nc1ccn([C@@H]2O[C@H](CO)[C@@H](O)C2(F)F)c(=O)n1 [Gemcitabine]; conditions: max 0.3 µM
In short: as §1

[30] = compound: C1CN(CCC1(C(=O)N[C@@H](CCO)C2=CC=C(C=C2)Cl)N)C3=NC=NC4=C3C=CN4 [AZD5363]; conditions: max 10 µM
In short: as §1

[31] = compound: CC(=O)c1c(C)c2cnc(Nc3ccc(N4CCNCC4)cn3)nc2n(C2CCCC2)c1=O [Palbociclib]; conditions: max 10 µM
In short: as §1

[32] = compound: CN(CC[C@H](CSC1=CC=CC=C1)NC2=C(C=C(C=C2)S(=O)(=O)NC(=O)C3=CC=C(C=C3)N4CCC(CC4)[C@H](C5=CC=CC=C5C6=CC=C(C=C6)Cl)O)S(=O)(=O)C(F)(F)F)CCO [AZD4320]; conditions: max 1 µM
In short: as §1

[33] = compound: CS(=O)(=O)CCNCc1ccc(-c2ccc3ncnc(Nc4ccc(OCc5cccc(F)c5)c(Cl)c4)c3c2)o1 [Lapatinib]; conditions: max 10 µM
In short: as §1

[34] = compound: C1CC(C1)(C(=O)[O-])C(=O)[O-].N.N.[Pt+2] [Carboplatin]; conditions: max 10 µM
In short: as §1

[35] = compound: CC(=O)Nc1cccc(-n2c(=O)n(C3CC3)c(=O)c3c(Nc4ccc(I)cc4F)n(C)c(=O)c(C)c32)c1 [Trametinib]; conditions: max 1 µM
In short: as §1

Cell Line	IC50, cell viability 72 h [1] [µM]	IC50, cell viability 72 h [2] [µM]	IC50, cell viability 72 h [3] [µM]	IC50, cell viability 72 h [4] [µM]	IC50, cell viability 72 h [5] [µM]	IC50, cell viability 72 h [6] [µM]	IC50, cell viability 72 h [7] [µM]	IC50, cell viability 72 h [8] [µM]	IC50, cell viability 72 h [9] [µM]	IC50, cell viability 72 h [10] [µM]	IC50, cell viability 72 h [11] [µM]	IC50, cell viability 72 h [12] [µM]	IC50, cell viability 72 h [13] [µM]	IC50, cell viability 72 h [14] [µM]	IC50, cell viability 72 h [15] [µM]	IC50, cell viability 72 h [16] [µM]	IC50, cell viability 72 h [17] [µM]	IC50, cell viability 72 h [18] [µM]	IC50, cell viability 72 h [19] [µM]	IC50, cell viability 72 h [20] [µM]	IC50, cell viability 72 h [21] [µM]	IC50, cell viability 72 h [22] [µM]	IC50, cell viability 72 h [23] [µM]	IC50, cell viability 72 h [24] [µM]	IC50, cell viability 72 h [25] [µM]	IC50, cell viability 72 h [26] [µM]	IC50, cell viability 72 h [27] [µM]	IC50, cell viability 72 h [28] [µM]	IC50, cell viability 72 h [29] [µM]	IC50, cell viability 72 h [30] [µM]	IC50, cell viability 72 h [31] [µM]	IC50, cell viability 72 h [32] [µM]	IC50, cell viability 72 h [33] [µM]	IC50, cell viability 72 h [34] [µM]	IC50, cell viability 72 h [35] [µM]
LOUCY (T-Lymphoblastic Leukemia)	> 0.001	1.23	> 1	7.43	> 2	> 20	> 0.3	5	0.385	0.0317	0.0135	> 1	0.00815	> 10	0.00697	1.31	3.53	4	> 3	0.257	> 10	> 10	> 5	> 1	2.72	> 10	0.172	0.597	> 0.3	2.45	> 10	0.00375	> 10	> 10	> 1
NCI-H810 (Non-Small Cell Lung Carcinoma)	> 0.001	> 10	> 1	> 10	> 2	> 20	> 0.3	> 10	0.442	> 1	0.282	0.88	0.33	> 10	0.0528	> 10	> 10	> 10	> 3	0.437	> 10	> 10	> 5	> 1	> 10	> 10	0.202	1.38	> 0.3	> 10	> 10	> 1	> 10	> 10	> 1
NCI-H1755 (Lung Adenocarcinoma)	> 0.001	> 10	> 1	> 10	0.211	> 20	> 0.3	> 10	> 1	> 1	0.0582	> 1	> 1	> 10	0.0108	2.08	2.41	3.97	> 3	0.363	> 10	> 10	1.95	> 1	2.3	> 10	> 0.3	3.91	> 0.3	> 10	9	> 1	> 10	> 10	0.444
NKM-1 (Acute Myeloid Leukemia)	> 0.001	0.855	0.0493	> 10	0.147	3.19	> 0.3	0.496	0.0594	0.102	0.00366	0.0241	0.502	1.27	0.015	1.86	0.201	2.03	> 3	0.455	2.7	> 10	2	> 1	2.37	4.42	0.00201	0.177	0.00513	8.12	1.25	0.00773	> 10	> 10	0.0833
OV-90 (Ovarian Carcinoma)	> 0.001	> 10	> 1	> 10	> 2	> 20	> 0.3	> 10	> 1	> 1	> 3	> 1	> 1	> 10	0.523	> 10	> 10	> 10	> 3	> 3	7.81	> 10	1.88	> 1	> 10	> 10	0.265	> 10	> 0.3	> 10	> 10	> 1	> 10	> 10	0.0837
